Consider 14 compounds from patent US20260209234A1, “SUBSTITUTED DIHYDROPYRROLO[3,4-D]PYRIMIDINE COMPOUNDS AND THEIR USE IN TREATING MEDICAL CONDITIONS” (Karuna Therapeutics, Inc., priority 2022, published 2026).

The target of assay [1] is T1, hM4 receptors (Homo sapiens, UniProt P08173).
T1 construct: expressed in transfected cells; host or cells: CHO cells
T1 sequence (P08173 1-479): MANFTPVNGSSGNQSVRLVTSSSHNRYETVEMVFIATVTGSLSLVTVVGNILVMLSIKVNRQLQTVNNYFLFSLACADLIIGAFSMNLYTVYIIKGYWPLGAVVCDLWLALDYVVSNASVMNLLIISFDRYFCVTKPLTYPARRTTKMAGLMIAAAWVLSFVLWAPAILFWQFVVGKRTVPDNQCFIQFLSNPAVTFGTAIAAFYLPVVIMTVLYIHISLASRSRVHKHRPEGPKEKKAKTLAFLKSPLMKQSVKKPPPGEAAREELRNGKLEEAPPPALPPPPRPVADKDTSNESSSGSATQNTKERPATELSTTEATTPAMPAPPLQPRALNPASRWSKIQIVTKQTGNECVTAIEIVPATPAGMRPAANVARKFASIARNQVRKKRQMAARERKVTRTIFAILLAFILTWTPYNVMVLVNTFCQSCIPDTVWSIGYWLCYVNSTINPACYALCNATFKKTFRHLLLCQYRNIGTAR
As to the kind of experiment: Human M4 PAM pERK assay. The following applies: CHO cells expressing hM4; EC20 of acetylcholine (10 nM final); TR-FRET. Type of assay: cell-based. (In general: TR-FRET usually uses a lanthanide donor and a delayed reading to cut background.)

Assay [2] deals with T2, rM4 receptors (Rattus norvegicus, UniProt P08485).
T2 construct: expressed in transfected cells; host or cells: CHO cells
T2 sequence (P08485 1-478): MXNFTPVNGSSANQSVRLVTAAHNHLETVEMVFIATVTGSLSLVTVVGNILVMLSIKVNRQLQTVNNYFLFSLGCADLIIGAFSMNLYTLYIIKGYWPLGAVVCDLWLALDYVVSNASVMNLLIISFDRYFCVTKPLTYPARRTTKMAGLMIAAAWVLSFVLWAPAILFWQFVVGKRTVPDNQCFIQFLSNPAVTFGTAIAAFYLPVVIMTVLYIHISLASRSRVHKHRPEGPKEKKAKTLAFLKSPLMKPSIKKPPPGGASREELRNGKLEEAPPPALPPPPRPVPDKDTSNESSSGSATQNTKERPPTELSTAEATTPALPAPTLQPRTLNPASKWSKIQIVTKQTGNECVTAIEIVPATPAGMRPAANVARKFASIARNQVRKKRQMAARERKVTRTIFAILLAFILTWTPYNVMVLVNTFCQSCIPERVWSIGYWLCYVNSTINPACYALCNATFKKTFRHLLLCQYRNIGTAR
As to the kind of experiment: Rat M4 PAM pERK assay. Type of assay: cell-based. As to conditions: CHO cells expressing rM4; EC20 of acetylcholine (10 nM final); TR-FRET.

The target in assay [3] is T3, human M4 receptor (Homo sapiens, UniProt P08173).
T3 construct: expressed in transfected cells
T3 sequence (P08173 1-479): T1 sequence (P08173 1-479)
The experiment in a line: M4 GTPγS PAM assay. Format: biochemical. As to conditions: membranes of CHO-K1 cells stably expressing human M4; EC20 acetylcholine 40 nM; 35S-GTP. On the procedure:
The M4 GTPγS PAM method was used. Membranes were prepared for GTPgS binding assays from CHO-K1 cells stably expressing human M4 receptor. Briefly, cells were grown in 5-layer cell culture flasks. Cells were washed with 50 mL of PBS and then dissociated with 0.05% trypsin. Dissociated cells were then collected by centrifugation at 650×g for 8 minutes at 4° C. Pellets were washed again in PBS by centrifugation and resuspended in 30 mL of 20 mM HEPES, 10 mM EDTA, pH 7.4. After sitting on ice for 30 min, membranes were collected by centrifugation at 50000×g for 15′ at 4° C., resuspended in 30 mL of 20 mM HEPES, 0.1 mM EDTA, pH 7.4 and collected again by centrifugation. Pellets were then washed twice by centrifugation in 30 mL of 20 mM HEPES, pH 7.4, and stored at −80° C. until the day of the assay. On the day of the assay, pellets were thawed on ice and resuspended in 1 mL of 20 mM HEPES, pH 7.4, 10 mM MgCl2, 100 mM NaCl using dounce homogenization. Membrane protein concentration is determined by BCA protein assay (Promega, Madison, WI) according to Promega guidelines.
On the day of the assay, serial dilutions of test PAM compounds were brought up in assay buffer (20 mM HEPES, 10 mM MgCl2, 100 mM NaCl) at 4× final assay concentration. […] of membrane homogenates (containing […] of membrane protein) were prepared in assay buffer supplemented with GDP at 4× final assay concentration (final assay concentration of GDP is 5 μM for M2 and 0.1 μM for M4) and dispensed into 96 well polypropylene, U-bottom Greiner plates. […] of vehicle or test PAM compound at 4× of final assay concentration diluted in the assay buffer were added to membrane and plates are incubated for 10-15 minutes at room temperature with gentle shaking. Then, […] of EC20 acetylcholine in assay buffer at 4× final assay concentration was added to assay plates (EC20 final assay concentrations was 40 nM for human M4).
Plates were then incubated, with shaking, for an additional 10-15 minutes. […] of 0.4 nM 35S-GTP (Perkin Elmer, Waltham, MA) in assay buffer was added to assay mixtures. The binding reaction is left on the shaker for 1 hour at room temperature. Membranes in assay reactions were then transferred to GF/C filter plates (Unifilter, Perkin Elmer) and washed three times using a FilterMate Harvester (Perkin Elmer) with cold assay buffer containing no GDP. Filter plates were then dried at 40° C. overnight followed by the addition of […] of Beta Plate Scintillation liquid. Plates are top and bottom sealed before being read on TopCount scintillation counter (Perkin Elmer, Waltham, MA).

By EC50 is commonly meant the concentration needed to bring the measured effect to its halfway point. Low readings indicate an effect from little substance, high ones a need for much substance.

Regarding `COc1nc(C#N)nc2c1C(C)N(C(=O)CC1CN(c3ccnc(C(C)(C)O)c3)C1)C2` (single isomer, unassigned) [Compound I-30, 6-(2-(1-(2-(2-Hydroxypropan-2-yl)pyridin-4-yl)azetidin-3-yl)acetyl)-4-methoxy-5-methyl-6,7-dihydro-5H-pyrrolo[3,4-d]pyrimidine-2-carbonitrile], the half-maximal effective concentration (EC50) in assay [1] is at most 100 nM; in assay [2], 100 to 500 nM; in assay [3], 100 to 500 nM.

Consider `COc1nc(C#N)nc2c1C(C)N(C(=O)CC1CN(c3ccc(C4CC4)nc3)C1)C2` (single isomer, unassigned) [Compound I-32, 6-(2-(1-(6-Cyclopropylpyridin-3-yl)azetidin-3-yl)acetyl)-4-methoxy-5-methyl-6,7-dihydro-5H-pyrrolo[3,4-d]pyrimidine-2-carbonitrile], for which the half-maximal effective concentration (EC50) in assay [1], in assay [2] and in assay [3] was at least 2000 nM in each case.

For `COc1nc(C#N)nc2c1C(C)N(C(=O)CC1CN(c3ccc(C4CC4)nc3)C1)C2` (single isomer, unassigned) [Compound I-33, 6-(2-(1-(6-Cyclopropylpyridin-3-yl)azetidin-3-yl)acetyl)-4-methoxy-5-methyl-6,7-dihydro-5H-pyrrolo[3,4-d]pyrimidine-2-carbonitrile], the EC50 in assay [1] is at most 100 nM; in assay [2], 100 to 500 nM; in assay [3], 100 to 500 nM.

For the compound `COc1nc(C#N)nc2c1CN(C(=O)CC1CN(c3ccnc(C(F)(F)F)c3)C1)C2C` (single isomer, unassigned) [Compound I-34, 4-Methoxy-7-methyl-6-(2-(1-(2-(trifluoromethyl)pyridin-4-yl)azetidin-3-yl)acetyl)-6,7-dihydro-5H-pyrrolo[3,4-d]pyrimidine-2-carbonitrile], the EC50 in assay [1] was 500 to 2000 nM; in assay [2], at least 2000 nM; in assay [3] it was 500 to 2000 nM.

Take `COc1nc(C#N)nc2c1CN(C(=O)CC1CN(c3ccnc(C(F)(F)F)c3)C1)C2C` (single isomer, unassigned) [Compound I-35, 4-Methoxy-7-methyl-6-(2-(1-(2-(trifluoromethyl)pyridin-4-yl)azetidin-3-yl)acetyl)-6,7-dihydro-5H-pyrrolo[3,4-d]pyrimidine-2-carbonitrile]: the results for the half-maximal effective concentration (EC50) in assay [1], in assay [2] and in assay [3] were 100 to 500 nM, 500 to 2000 nM and at least 2000 nM, respectively.

With `COc1nc(C#N)nc2c1C(C)N(C(=O)CC1CN(c3ccnc(C(F)(F)F)c3)C1C)C2` (single isomer, unassigned) [Compound I-36, 4-Methoxy-5-methyl-6-(2-(2-methyl-1-(2-(trifluoromethyl)pyridin-4-yl)azetidin-3-yl)acetyl)-6,7-dihydro-5H-pyrrolo[3,4-d]pyrimidine-2-carbonitrile], the 50% effective concentration (EC50) in assay [1], in assay [2] and in assay [3] was at most 100 nM throughout.

Consider `COc1nc(C#N)nc2c1C(C)N(C(=O)CC1CN(c3ccnc(C(F)(F)F)c3)C1C)C2` (single isomer, unassigned) [Compound I-37, 4-Methoxy-5-methyl-6-(2-(2-methyl-1-(2-(trifluoromethyl)pyridin-4-yl)azetidin-3-yl)acetyl)-6,7-dihydro-5H-pyrrolo[3,4-d]pyrimidine-2-carbonitrile], for which the EC50 in assay [1] was at most 100 nM; in assay [2], 100 to 500 nM; in assay [3], at most 100 nM.

As to `COc1nc(C#N)nc2c1C(C)N(C(=O)CC1CN(c3ccnc(C(F)(F)F)c3)C1C)C2` (single isomer, unassigned) [Compound I-38, 4-Methoxy-5-methyl-6-(2-(2-methyl-1-(2-(trifluoromethyl)pyridin-4-yl)azetidin-3-yl)acetyl)-6,7-dihydro-5H-pyrrolo[3,4-d]pyrimidine-2-carbonitrile], the EC50 fell in the range of 100 to 500 nM in assay [1], 500 to 2000 nM in assay [2] and 500 to 2000 nM in assay [3].

For the compound `COc1nc(C#N)nc2c1C(C)N(C(=O)CC1CN(c3ccnc(C(F)(F)F)c3)C1C)C2` (single isomer, unassigned) [Compound I-39, 4-Methoxy-5-methyl-6-(2-(2-methyl-1-(2-(trifluoromethyl)pyridin-4-yl)azetidin-3-yl)acetyl)-6,7-dihydro-5H-pyrrolo[3,4-d]pyrimidine-2-carbonitrile], the 50% effective concentration (EC50) in assay [1] is 500 to 2000 nM; in assay [2], 500 to 2000 nM; in assay [3] it was at least 2000 nM.

For `COc1nc(C)nc2c1C(C)N(C(=O)CC1CN(c3ccnc(C(F)(F)F)c3)C1)C2` (single isomer, unassigned) [Compound I-53, 1-(4-Methoxy-2,5-dimethyl-5,7-dihydro-6H-pyrrolo[3,4-d]pyrimidin-6-yl)-2-(1-(2-(trifluoromethyl)pyridin-4-yl)azetidin-3-yl)ethan-1-one], the EC50 in assay [1], in assay [2] and in assay [3] was at least 2000 nM throughout.

For `COc1nc(C)nc2c1C(C)N(C(=O)CC1CN(c3cccc(C#N)c3)C1)C2` (single isomer, unassigned) [Compound I-54, 3-(3-(2-(4-Methoxy-2,5-dimethyl-5,7-dihydro-6H-pyrrolo[3,4-d]pyrimidin-6-yl)-2-oxoethyl)azetidin-1-yl)benzonitrile], the concentration giving a half-maximal response (EC50) in assay [1], in assay [2] and in assay [3] was at least 2000 nM each time.

Regarding `COc1nc(C)nc2c1C(C)N(C(=O)CC1CN(c3cccc(C#N)c3)C1)C2` (single isomer, unassigned) [Compound I-55, 3-(3-(2-(4-Methoxy-2,5-dimethyl-5,7-dihydro-6H-pyrrolo[3,4-d]pyrimidin-6-yl)-2-oxoethyl)azetidin-1-yl)benzonitrile], the half-maximal effective concentration (EC50) was 500 to 2000 nM in assay [1], 500 to 2000 nM in assay [2] and at least 2000 nM in assay [3].

Turning to `COc1nc(C)nc2c1C(C)N(C(=O)CC1CN(c3ccc(C#N)cc3)C1)C2` (single isomer, unassigned) [Compound I-56, 4-(3-(2-(4-Methoxy-2,5-dimethyl-5,7-dihydro-6H-pyrrolo[3,4-d]pyrimidin-6-yl)-2-oxoethyl)azetidin-1-yl)benzonitrile], the half-maximal effective concentration (EC50) in assay [1] is at most 100 nM; in assay [2] it was 100 to 500 nM; in assay [3], 100 to 500 nM.

Regarding `COc1nc(C)nc2c1C(C)N(C(=O)CC1CN(c3ccc(C#N)cc3)C1)C2` (single isomer, unassigned) [Compound I-57, 4-(3-(2-(4-Methoxy-2,5-dimethyl-5,7-dihydro-6H-pyrrolo[3,4-d]pyrimidin-6-yl)-2-oxoethyl)azetidin-1-yl)benzonitrile], the EC50 in assay [1] was at least 2000 nM; in assay [2], at least 2000 nM; in assay [3], 500 to 2000 nM.
